The NIST ThermoML archive (doi:10.1016/j.tca.2012.08.011)

Assay: xn = mol fraction of the nth substance listed
Conditions: 101 kPa, Liquid; for speed of sound: Linear variable-path acoustic interferometer; for mass density: Vibrating tube method

NC1CCCCC1 [cyclohexylamine] + C1CCCCC1
Conditions	mass density [kg/m3]	speed of sound [m/s]
293.15 K, x1 = 0.0545	782.87	1282.7
293.15 K, x1 = 0.1032	786.84	1287.2
293.15 K, x1 = 0.1514	790.9	1291.9
293.15 K, x1 = 0.204	795.42	1298
293.15 K, x1 = 0.2496	799.41	1303.5
293.15 K, x1 = 0.3052	804.34	1310.7
293.15 K, x1 = 0.3467	808.08	1316.6
293.15 K, x1 = 0.3967	812.57	1323.8
293.15 K, x1 = 0.4025	813.08	1324.5
293.15 K, x1 = 0.4478	817.22	1331.2
293.15 K, x1 = 0.4992	821.91	1339.2
293.15 K, x1 = 0.5538	826.9	1348.3
293.15 K, x1 = 0.6495	835.66	1364.5
293.15 K, x1 = 0.6996	840.25	1373.5
293.15 K, x1 = 0.7535	845.15	1383.2
293.15 K, x1 = 0.8071	850.03	1393
293.15 K, x1 = 0.8555	854.41	1402.2
293.15 K, x1 = 0.8959	858.06	1410.1
293.15 K, x1 = 0.9501	862.93	1420.6
293.15 K, x1 = 1	867.39	1430.5
298.15 K, x1 = 0.0545	778.17	1257.9
298.15 K, x1 = 0.1032	782.14	1262.6
298.15 K, x1 = 0.1514	786.2	1267.6
298.15 K, x1 = 0.204	790.73	1273.8
298.15 K, x1 = 0.2496	794.7	1279.4
298.15 K, x1 = 0.3052	799.64	1286.8
298.15 K, x1 = 0.3467	803.36	1293
298.15 K, x1 = 0.3967	807.88	1300.2
298.15 K, x1 = 0.4025	808.4	1300.9
298.15 K, x1 = 0.4478	812.54	1307.8
298.15 K, x1 = 0.4992	817.25	1315.9
298.15 K, x1 = 0.5538	822.24	1325
298.15 K, x1 = 0.6495	831.02	1341.3
298.15 K, x1 = 0.6996	835.61	1350.4
298.15 K, x1 = 0.7535	840.54	1360.5
298.15 K, x1 = 0.8071	845.43	1370.4
298.15 K, x1 = 0.8555	849.81	1379.6
298.15 K, x1 = 0.8959	853.48	1387.7
298.15 K, x1 = 0.9501	858.37	1398.5
298.15 K, x1 = 1	862.85	1408.8
303.15 K, x1 = 0.0545	773.44	1233.6
303.15 K, x1 = 0.1032	777.42	1238.1
303.15 K, x1 = 0.1514	781.48	1243.5
303.15 K, x1 = 0.204	786.03	1249.7
303.15 K, x1 = 0.2496	790.01	1255.4
303.15 K, x1 = 0.3052	794.94	1263.2
303.15 K, x1 = 0.3467	798.67	1269
303.15 K, x1 = 0.3967	803.19	1276.7
303.15 K, x1 = 0.4025	803.71	1277.4
303.15 K, x1 = 0.4478	807.85	1284.4
303.15 K, x1 = 0.4992	812.59	1292.7
303.15 K, x1 = 0.5538	817.57	1301.8
303.15 K, x1 = 0.6495	826.37	1318.5
303.15 K, x1 = 0.6996	830.97	1327.6
303.15 K, x1 = 0.7535	835.93	1337.7
303.15 K, x1 = 0.8071	840.82	1347.9
303.15 K, x1 = 0.8555	845.22	1357.2
303.15 K, x1 = 0.8959	848.9	1365.3
303.15 K, x1 = 0.9501	853.81	1376.5
303.15 K, x1 = 1	858.31	1387.3
308.15 K, x1 = 0.0545	768.69	1209.3
308.15 K, x1 = 0.1032	772.67	1213.9
308.15 K, x1 = 0.1514	776.74	1219.6
308.15 K, x1 = 0.204	781.3	1225.8
308.15 K, x1 = 0.2496	785.28	1231.6
308.15 K, x1 = 0.3052	790.22	1239.7
308.15 K, x1 = 0.3467	793.96	1245.6
308.15 K, x1 = 0.3967	798.48	1253.5
308.15 K, x1 = 0.4025	799.01	1254.4
308.15 K, x1 = 0.4478	803.16	1261.5
308.15 K, x1 = 0.4992	807.91	1269.9
308.15 K, x1 = 0.5538	812.89	1279
308.15 K, x1 = 0.6495	821.73	1295.7
308.15 K, x1 = 0.6996	826.34	1305
308.15 K, x1 = 0.7535	831.31	1315.5
308.15 K, x1 = 0.8071	836.22	1325.6
308.15 K, x1 = 0.8555	840.63	1334.9
308.15 K, x1 = 0.8959	844.32	1343.1
308.15 K, x1 = 0.9501	849.24	1354.7
308.15 K, x1 = 1	853.76	1366
313.15 K, x1 = 0.0545	763.91	1185.5
313.15 K, x1 = 0.1032	767.89	1189.8
313.15 K, x1 = 0.1514	771.98	1195.5
313.15 K, x1 = 0.204	776.54	1202
313.15 K, x1 = 0.2496	780.53	1207.9
313.15 K, x1 = 0.3052	785.49	1216.3
313.15 K, x1 = 0.3467	789.24	1222.2
313.15 K, x1 = 0.3967	793.77	1230.3
313.15 K, x1 = 0.4025	794.29	1231
313.15 K, x1 = 0.4478	798.45	1238.5
313.15 K, x1 = 0.4992	803.21	1247
313.15 K, x1 = 0.5538	808.21	1256.3
313.15 K, x1 = 0.6495	817.07	1273.3
313.15 K, x1 = 0.6996	821.7	1282.6
313.15 K, x1 = 0.7535	826.67	1292.9
313.15 K, x1 = 0.8071	831.61	1303.4
313.15 K, x1 = 0.8555	836.02	1312.8
313.15 K, x1 = 0.8959	839.74	1321.1
313.15 K, x1 = 0.9501	844.68	1332.8
313.15 K, x1 = 1	849.23	1344.5
318.15 K, x1 = 0.0545	759.09	1162.1
318.15 K, x1 = 0.1032	763.09	1166.2
318.15 K, x1 = 0.1514	767.19	1171.9
318.15 K, x1 = 0.204	771.77	1178.7
318.15 K, x1 = 0.2496	775.77	1184.7
318.15 K, x1 = 0.3052	780.74	1193.1
318.15 K, x1 = 0.3467	784.5	1199.2
318.15 K, x1 = 0.3967	789.02	1207.3
318.15 K, x1 = 0.4025	789.56	1208.2
318.15 K, x1 = 0.4478	793.71	1215.8
318.15 K, x1 = 0.4992	798.49	1224.5
318.15 K, x1 = 0.5538	803.51	1233.9
318.15 K, x1 = 0.6495	812.4	1251.1
318.15 K, x1 = 0.6996	817.05	1260.4
318.15 K, x1 = 0.7535	822.04	1270.9
318.15 K, x1 = 0.8071	827	1281.5
318.15 K, x1 = 0.8555	831.42	1290.9
318.15 K, x1 = 0.8959	835.15	1299.2
318.15 K, x1 = 0.9501	840.12	1311.1
318.15 K, x1 = 1	844.68	1323.1
323.15 K, x1 = 0.0545	754.26	1138.5
323.15 K, x1 = 0.1032	758.27	1142.7
323.15 K, x1 = 0.1514	762.37	1148.4
323.15 K, x1 = 0.204	766.97	1155.2
323.15 K, x1 = 0.2496	770.99	1161.4
323.15 K, x1 = 0.3052	775.97	1169.9
323.15 K, x1 = 0.3467	779.75	1176.2
323.15 K, x1 = 0.3967	784.29	1184.5
323.15 K, x1 = 0.4025	784.82	1185.4
323.15 K, x1 = 0.4478	788.97	1193.2
323.15 K, x1 = 0.4992	793.75	1202
323.15 K, x1 = 0.5538	798.79	1211.6
323.15 K, x1 = 0.6495	807.72	1228.8
323.15 K, x1 = 0.6996	812.4	1238.3
323.15 K, x1 = 0.7535	817.4	1248.9
323.15 K, x1 = 0.8071	822.37	1259.4
323.15 K, x1 = 0.8555	826.82	1269.2
323.15 K, x1 = 0.8959	830.56	1277.6
323.15 K, x1 = 0.9501	835.56	1289.6
323.15 K, x1 = 1	840.14	1301.8
